Measured values reported in patent publication US20130316990A1, “USE OF VITAMIN D COMPOUNDS” (DSM IP ASSETS B.V., priority 2003, published 2013).
Marks after values point to notes of the source that are not given here.

Assays:
[1] = system: growing-fattening pigs; assay: Bone strength (Newton at the breaking point) in growing-fattening pigs fed supplemented diet, Example 1; type: in vivo; details: for Strength - metacarpals and metatarsals, relative to group A (100) / Strength - metacarpals, relative to group A (100) / Strength - metatarsals, relative to group A (100): unmedicated basal diet = 100; for Strength - metacarpals / Strength - metatarsals: mean ± SD of 8 determinations; for Strength - metacarpals and metatarsals: mean ± SD of 16 determinations
Method: Growing-fattening pigs of an initial body weight of 64.8±5.03 kg were fed a diet based on maize, barley and soybean meal ad libitum for 34 days. Groups of 16 animals each were fed as follows:
A: basal diet (unmedicated),
B: basal diet+1,200 IU/kg vitamin D3
C: basal diet+30 μg/kg 25-hydroxy vitamin D3 (Hy.D® 1.25% Beadlet, Roche Vitamins AG, Basel, Switzerland)
D: basal diet+600 IU/kg vitamin D3+15 μg/kg 25-hydroxy vitamin D3 (Hy.D® 1.25% Beadlet, Roche Vitamins AG, Basel, Switzerland).
(§1) The effects of the addition of 25-hydroxy vitamin D3 and vitamin D3 to the diet were determined by measuring the strength (Newton at the breaking point) of the bones of the animals.

[2] = system: weaner piglets; assay: Bone strength (Newton at the breaking point) in weaner piglets fed supplemented diet, Example 2; type: in vivo; details: for Strength - femur: mean ± SD of 8 determinations
Method: Weaner piglets of an initial body weight of 8.4±1.2 kg were fed a diet based on maize, barley and soybean meal ad libitum for 33 days. Groups of 31 animals each were fed as follows:
A: basal diet+1,000 IU/kg vitamin D3
B: basal diet+2,000 IU/kg vitamin D3
C: basal diet +40 μg/kg 25-hydroxy vitamin D3 (Hy.D® 1.25% Beadlet, Roche Vitamins AG, Basel, Switzerland)
D: basal diet+1,000 IU/kg vitamin D3+20 μg/kg 25-hydroxy vitamin D3 (Hy. D® 1.25% Beadlet, Roche Vitamins AG, Basel, Switzerland).
as §1

[3] = group C: 30 μg/kg 25-hydroxy vitamin D3, 34 days
[4] = group C: basal diet+30 μg/kg 25-hydroxy vitamin D3, 34 days
[5] = group B: 1,200 IU/kg vitamin D3, 34 days
[6] = group B: basal diet+1,200 IU/kg vitamin D3, 34 days

SMILES | strength of the bones of the growing-finishing pig (in words) ([1]; Example 1, addition to diet, 34 days) | Strength - metacarpals and metatarsals, relative to group A (100) [1, 3] | Strength - metacarpals, relative to group A (100) [1, 3] | Strength - metatarsals, relative to group A (100) [1, 3] | Strength - metacarpals ([1]; group C: basal diet+30 μg/kg 25-hydroxy vitamin D3 (Hy.D 1.25% Beadlet), 34 days) | Strength - metatarsals [1, 4] | Strength - metacarpals and metatarsals [1, 4] | Strength - femur, relative to group A (100) ([2]; group C: 40 μg/kg 25-hydroxy vitamin D3, 33 days, 1,000 IU/kg vitamin D3 group = 100) | Strength - femur ([2]; group C: basal diet+40 μg/kg 25-hydroxy vitamin D3 (Hy.D 1.25% Beadlet), 33 days) | Strength - metacarpals and metatarsals, relative to group A (100) [1, 5] | Strength - metacarpals, relative to group A (100) [1, 5] | Strength - metatarsals, relative to group A (100) [1, 5] | Strength - metacarpals [1, 6] | Strength - metatarsals [1, 6] | Strength - metacarpals and metatarsals [1, 6] | Strength - femur, relative to group A (100) ([2]; group A: 1,000 IU/kg vitamin D3, 33 days, reference group = 100) | Strength - femur, relative to group A (100) ([2]; group B: 2,000 IU/kg vitamin D3, 33 days, 1,000 IU/kg vitamin D3 group = 100) | Strength - femur ([2]; group B: basal diet+2,000 IU/kg vitamin D3, 33 days)
C=C1CC[C@H](O)C/C1=C/C=C1\CCC[C@]2(C)[C@@H]([C@H](C)CCCC(C)(C)O)CC[C@@H]12 [25-hydroxy vitamin D3] | clearly improved | (112) | (123) | (103) | 520 ± 72^df Newton | 545 ± 105 Newton | 533 ± 88^ac Newton | (100) | 803 ± 82^a Newton |  |  |  |  |  |  |  |  | 
C=C1CC[C@H](O)C/C1=C/C=C1\CCC[C@]2(C)[C@@H]([C@H](C)CCCC(C)C)CC[C@@H]12 [vitamin D3] |  |  |  |  |  |  |  |  |  | (107) | (109) | (105) | 463 ± 48^ce Newton | 553 ± 169 Newton | 508 ± 113^ac Newton | (100) | (109) | 873 ± 123^ab Newton
